Results reported in ChEMBL document CHEMBL3414430 (J Med Chem, 2015).
pEC50, pIC50: −log10 of the molar value. In brackets after ≈: the same amount, converted by molar mass. Activity calls are given as the source filed them. No cut-off for these calls is given here.

Assays:
[1] = target: T1, Protein deacetylase HDAC6 (Homo sapiens, UniProt Q9UBN7)
T1 sequence (Q9UBN7 whole entry): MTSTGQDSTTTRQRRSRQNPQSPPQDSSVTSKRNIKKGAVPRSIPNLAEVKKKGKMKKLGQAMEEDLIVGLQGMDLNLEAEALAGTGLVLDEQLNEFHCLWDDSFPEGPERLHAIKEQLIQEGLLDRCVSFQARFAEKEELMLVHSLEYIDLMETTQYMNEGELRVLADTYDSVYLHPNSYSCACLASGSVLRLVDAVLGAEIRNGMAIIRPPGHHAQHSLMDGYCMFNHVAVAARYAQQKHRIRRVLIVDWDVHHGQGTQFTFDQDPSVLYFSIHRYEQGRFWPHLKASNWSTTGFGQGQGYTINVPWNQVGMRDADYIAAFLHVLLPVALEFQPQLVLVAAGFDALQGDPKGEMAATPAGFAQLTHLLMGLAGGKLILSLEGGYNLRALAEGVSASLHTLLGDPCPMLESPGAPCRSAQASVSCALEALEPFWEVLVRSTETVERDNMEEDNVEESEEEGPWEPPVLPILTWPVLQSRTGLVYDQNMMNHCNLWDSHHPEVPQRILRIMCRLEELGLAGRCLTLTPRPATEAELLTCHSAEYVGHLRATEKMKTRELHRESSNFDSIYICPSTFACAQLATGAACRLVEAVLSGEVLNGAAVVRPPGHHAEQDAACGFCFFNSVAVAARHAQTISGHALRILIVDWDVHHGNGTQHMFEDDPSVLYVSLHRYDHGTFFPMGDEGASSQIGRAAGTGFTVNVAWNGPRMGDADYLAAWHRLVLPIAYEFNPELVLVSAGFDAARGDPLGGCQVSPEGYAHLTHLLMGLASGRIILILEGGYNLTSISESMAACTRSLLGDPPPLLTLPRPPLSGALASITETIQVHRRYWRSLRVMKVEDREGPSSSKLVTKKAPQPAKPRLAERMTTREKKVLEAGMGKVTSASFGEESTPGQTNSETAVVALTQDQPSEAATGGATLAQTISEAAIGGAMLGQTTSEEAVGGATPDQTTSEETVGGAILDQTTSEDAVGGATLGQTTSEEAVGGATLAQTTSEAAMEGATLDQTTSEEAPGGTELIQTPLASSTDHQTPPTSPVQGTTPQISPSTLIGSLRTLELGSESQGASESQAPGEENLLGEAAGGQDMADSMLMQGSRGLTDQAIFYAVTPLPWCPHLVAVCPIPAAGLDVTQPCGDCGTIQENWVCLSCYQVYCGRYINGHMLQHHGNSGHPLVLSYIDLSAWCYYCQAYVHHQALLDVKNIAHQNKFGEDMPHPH
Description: Inhibition of HDAC6 (unknown origin) using RHKK(Ac)AMC as substrate

Histone deacetylase 8 = target: T2, Histone deacetylase 8 (Homo sapiens, UniProt Q9BY41)
T2 sequence (Q9BY41 whole entry): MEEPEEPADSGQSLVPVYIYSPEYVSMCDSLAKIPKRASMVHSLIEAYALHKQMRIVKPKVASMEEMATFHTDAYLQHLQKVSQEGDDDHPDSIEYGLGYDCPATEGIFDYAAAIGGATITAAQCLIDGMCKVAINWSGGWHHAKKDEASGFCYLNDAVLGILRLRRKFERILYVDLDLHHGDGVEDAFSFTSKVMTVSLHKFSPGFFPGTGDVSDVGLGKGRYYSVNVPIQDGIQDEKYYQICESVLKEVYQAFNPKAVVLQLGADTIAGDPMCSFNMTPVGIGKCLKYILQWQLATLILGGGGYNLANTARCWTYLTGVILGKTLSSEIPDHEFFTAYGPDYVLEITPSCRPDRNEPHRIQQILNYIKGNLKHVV
Description: Inhibition of HDAC8 (unknown origin) using RHK(Ac)K(Ac)AMC as substrate

[2] = target: T3, Histone deacetylase 1/2/3/6 (Homo sapiens) (UniProt Q13547+O15379+Q9UBN7+Q92769); conditions: HeLa, at 10 µM
T3 sequence (O15379 whole entry, looked up, one chain of several): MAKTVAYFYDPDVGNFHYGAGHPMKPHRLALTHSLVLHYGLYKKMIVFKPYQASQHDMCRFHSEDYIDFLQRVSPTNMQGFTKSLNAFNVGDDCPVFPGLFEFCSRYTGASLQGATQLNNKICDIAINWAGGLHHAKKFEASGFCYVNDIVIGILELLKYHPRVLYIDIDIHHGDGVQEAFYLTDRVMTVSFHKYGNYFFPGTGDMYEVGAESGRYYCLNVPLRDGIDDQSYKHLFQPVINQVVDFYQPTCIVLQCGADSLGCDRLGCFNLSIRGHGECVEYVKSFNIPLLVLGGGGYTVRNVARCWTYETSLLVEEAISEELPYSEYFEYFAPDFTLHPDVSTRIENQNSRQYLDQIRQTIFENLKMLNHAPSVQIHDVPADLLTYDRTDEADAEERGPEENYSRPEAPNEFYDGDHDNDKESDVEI
T3 sequence (Q13547 whole entry, looked up, one chain of several): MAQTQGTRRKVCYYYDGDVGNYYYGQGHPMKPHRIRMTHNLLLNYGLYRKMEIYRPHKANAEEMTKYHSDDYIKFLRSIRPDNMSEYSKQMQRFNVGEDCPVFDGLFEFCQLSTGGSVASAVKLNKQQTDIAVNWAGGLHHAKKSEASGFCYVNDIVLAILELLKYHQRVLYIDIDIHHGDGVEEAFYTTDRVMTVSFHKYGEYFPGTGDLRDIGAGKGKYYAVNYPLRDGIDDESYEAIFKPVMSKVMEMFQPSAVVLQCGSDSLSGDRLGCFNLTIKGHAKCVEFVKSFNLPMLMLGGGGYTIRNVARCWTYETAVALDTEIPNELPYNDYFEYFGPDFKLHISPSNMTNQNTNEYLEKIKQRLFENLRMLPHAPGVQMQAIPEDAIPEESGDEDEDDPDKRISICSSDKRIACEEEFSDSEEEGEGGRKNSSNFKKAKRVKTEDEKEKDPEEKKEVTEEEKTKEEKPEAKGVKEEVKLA
T3 sequence (Q92769 whole entry, looked up, one chain of several): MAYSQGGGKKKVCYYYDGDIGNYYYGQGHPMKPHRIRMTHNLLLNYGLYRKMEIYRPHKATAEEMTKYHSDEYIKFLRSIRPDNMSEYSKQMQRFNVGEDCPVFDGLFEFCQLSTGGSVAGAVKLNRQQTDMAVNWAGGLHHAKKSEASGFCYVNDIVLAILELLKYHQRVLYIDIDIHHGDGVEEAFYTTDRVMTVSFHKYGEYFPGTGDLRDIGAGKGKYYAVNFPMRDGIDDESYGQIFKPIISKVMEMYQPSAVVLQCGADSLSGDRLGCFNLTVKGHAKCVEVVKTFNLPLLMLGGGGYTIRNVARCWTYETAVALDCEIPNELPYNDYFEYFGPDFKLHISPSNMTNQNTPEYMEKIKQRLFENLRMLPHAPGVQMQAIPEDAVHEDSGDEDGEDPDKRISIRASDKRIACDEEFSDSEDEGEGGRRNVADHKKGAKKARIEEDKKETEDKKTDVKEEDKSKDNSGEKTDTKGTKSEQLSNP
Description: Inhibition of HDAC1/HDAC2/HDAC3 in human HeLa cells assessed as induction of p21 gene expression at 10 uM after 15 hrs by luciferase reporter gene assay relative to HDAC1 inhibitor SNDX-275

Histone deacetylase 1 = Histone deacetylase 1 (Homo sapiens, UniProt Q13547)
Sequence of Histone deacetylase 1 (Q13547 whole entry): as the sequence (Q13547 whole entry, looked up, one chain of several) above
Description: Inhibition of HDAC1 (unknown origin) using RHKK(Ac)AMC as substrate

[3] = target: T1, Protein deacetylase HDAC6; remark: listed apart in the source
Description: Inhibition of HDAC6 in human A549 cells assessed as induction of tubulin acetylation after 17 to 18 hrs by ELISA

[4] = Solubility of the compound in PBS measured after overnight incubation by LYSA assay; format: physicochemical
[5] = Intrinsic clearance in mouse liver microsomes at 1 uM preincubated for 10 mins followed by NADPH addition measured over 30 mins by LC-MS/MS analysis; format: ADME; conditions: read-out: CLH
Mus musculus [6] = assay: AUC (0 to infinity) in ICR mouse at 10 mg/kg, iv; format: ADME, organism-based, Plasma; set-up: time infinity, dose 10 mg/kg, route intravenous; conditions: in vivo
[7] = Cmax in ICR mouse at 100 mg/kg, po; format: ADME, organism-based; set-up: dose 100 mg/kg, route oral; conditions: in vivo
[8] = Plasma clearance in ICR mouse; format: ADME, organism-based
[9] = Half life in ICR mouse at 10 mg/kg, iv; format: ADME, organism-based; set-up: dose 10 mg/kg, route intravenous; conditions: in vivo
Mus musculus [10] = assay: AUC (0 to infinity) in ICR mouse at 100 mg/kg, po; format: ADME, organism-based, Plasma; set-up: time infinity, dose 100 mg/kg, route oral; conditions: in vivo
[11] = target: T3, Histone deacetylase 1/2/3/6 (Homo sapiens); assay: Inhibition of HDAC1/HDAC2/HDAC3 in human HeLa cells assessed as induction of p21 gene expression at 3 to 10 uM after 15 hrs by luciferase reporter gene assay; format: cell-based
[12] = Intrinsic clearance in human liver microsomes at 1 uM preincubated for 10 mins followed by NADPH addition measured over 30 mins by LC-MS/MS analysis; format: ADME; conditions: read-out: CLH
[13] = Oral bioavailability in ICR mouse at 100 mg/kg; format: ADME, organism-based; conditions: in vivo
[14] = Oral bioavailability in ICR mouse at 50 mg/kg; format: ADME, organism-based; conditions: in vivo
Mus musculus [15] = assay: AUC (0 to infinity) in ICR mouse at 50 mg/kg, po; format: ADME, organism-based, Plasma; set-up: time infinity, dose 50 mg/kg, route oral; conditions: in vivo
[16] = target: T3, Histone deacetylase 1/2/3/6 (Homo sapiens); assay: Inhibition of HDAC1/HDAC2/HDAC3 in human HeLa cells assessed as induction of p21 gene expression at 10 uM after 15 hrs by luciferase reporter gene assay; format: cell-based

Row | SMILES | pIC50 [1] | pIC50 (Histone deacetylase 8) | pIC50 (Histone deacetylase 1) | pEC50 [3] | solubility [4] [µg/mL] | also measured
1 | CN(c1ccc(C(=O)NO)cc1)C1CCN(c2ccccc2)C1=O (stereo unspecified) | 4.31 | 5.09 | < 4.00 | < 4.52 |  | inhibition [2]: inactive
2 | O=C(NO)c1ccc(NC2CCN(c3ccc4ccccc4c3)C2=O)cc1 (stereo unspecified) |  |  |  | 5.96 | < 1 | 
3 | O=C(NO)c1ccc(OC2CCN(c3ccccc3)C2=O)cc1 (stereo unspecified) | 5.24 | 5.31 | < 4.00 | < 4.52 | 203 (≈ 650 µM) | inhibition [2]: inactive
4 | CN(C)CCOc1cccc(N2CCC(Nc3ccc(C(=O)NO)cc3)C2=O)c1 (stereo unspecified) |  |  |  | 5.70 | > 400 | 
5 | O=C(NO)c1ccc(NC2CC(=O)N(c3ccccc3)C2)cc1 (stereo unspecified) | 5.65 | 5.20 | < 4.00 | 4.74 | > 350 | inhibition [2]: inactive
6 | O=C(NO)c1ccc(NC2CCN(c3ccc(Cl)cc3)C2=O)c(Cl)c1 (stereo unspecified) | 5.97 | 4.65 | 4.53 | 4.76 | < 1 | 
7 | O=C(CCCCCCC(=O)Nc1ccccc1)NO [VORINOSTAT] |  |  |  |  | > 385 | AUC (Mus musculus [6]): 1486 µg/L/h; clearance [8]: 112 mL/min/kg; CLint scaled at 1 µM [5]: 33 mL/min/kg; bioavailability [14]: 8%; AUC (Mus musculus [15]): 619 µg/L/h; half-life [9]: 24 min; CLint scaled at 1 µM [12]: 0.1 mL/min/kg
8 | O=C(NO)c1ccc2c(c1)C[C@H](Nc1nccc(-c3cccnc3)n1)CC2 |  |  |  |  |  | clearance [8]: 99 mL/min/kg
9 | CNc1ccc(C(=O)NO)cc1 | 5.75 | 6.03 | 4.28 | 4.72 |  | inhibition [2]: inactive
10 | O=C(NO)c1ccc(NC2CCN(c3ccc(Cl)cc3)C2=O)cc1F (stereo unspecified) |  |  |  | 4.87 | < 1 | 

Continued, in another order:

Row | pIC50 [1] | pIC50 (Histone deacetylase 8) | pIC50 (Histone deacetylase 1) | pEC50 [3] | solubility [4] [µg/mL] | SMILES | also measured
11 | 6.34 | 6.23 | < 4.00 | 5.59 | 415 (≈ 1280 µM) | CC1(Nc2ccc(C(=O)NO)cc2)CCN(c2ccccc2)C1=O (stereo unspecified) | 
12 | 7.00 | 6.80 | 4.89 | 5.51 | 28 (≈ 83.2 µM) | N#Cc1ccc(N2CCC(Nc3ccc(C(=O)NO)cc3)C2=O)cc1 (stereo unspecified) | 
13 | 7.05 | 6.74 | 4.92 |  | 17 (≈ 49.2 µM) | O=C(NO)c1ccc(NC2CCN(c3cccc(Cl)c3)C2=O)cc1 (stereo unspecified) | 
14 | 6.62 | 6.59 | 5.05 | 4.78 | 63 (≈ 186 µM) | O=C(NO)c1ccc(NC2CCN(CCc3ccccc3)C2=O)cc1 (stereo unspecified) | 
15 | 6.07 | 6.07 | 4.72 |  | < 1 | O=C(NO)c1ccc(NC2CCN(c3ccc(Cl)cc3)C2)cc1 (stereo unspecified) | CLint scaled at 1 µM [5]: 53 mL/min/kg
16 | 6.44 | 6.82 | 4.66 |  | 24 (≈ 69.4 µM) | O=C(NO)c1ccc(NC2CCN(c3ccccc3Cl)C2=O)cc1 (stereo unspecified) | 
17 | 6.29 | 6.12 | 4.93 |  | > 385 | O=C(NO)c1ccc(NC2CCN(Cc3ccccc3)C2=O)cc1 (stereo unspecified) | 
18 | 6.80 | 6.92 | 4.84 |  | < 1 | O=C(NO)c1ccc(NC2CCN(c3ccc(Cl)cc3)C2=O)cc1 (stereo unspecified) | AUC (Mus musculus [6]): 1065 µg/L/h; Cmax [7]: 57 ng/mL; clearance [8]: 156 mL/min/kg; CLint scaled at 1 µM [5]: 44 mL/min/kg; half-life [9]: 66 min; AUC (Mus musculus [10]): 278 µg/L/h; inhibition [11]: inactive; CLint scaled at 1 µM [12]: 8 mL/min/kg; bioavailability [13]: 3%
19 | 6.85 | 6.92 | 4.77 |  | 97 (≈ 249 µM) | CS(=O)(=O)c1ccc(N2CCC(Nc3ccc(C(=O)NO)cc3)C2=O)cc1 (stereo unspecified) | 
20 | 6.59 | 6.23 | 4.61 | 5.72 | 34 (≈ 94.5 µM) | C[C@@]1(Nc2ccc(C(=O)NO)cc2)CCN(c2ccc(Cl)cc2)C1=O | inhibition [11]: inactive
21 | 7.20 | 6.80 | 4.80 |  | < 1 | O=C(NO)c1ccc(NC2CCN(c3ccc(Cl)c(Cl)c3)C2=O)cc1 (stereo unspecified) | 
22 | 6.60 | 6.96 | 4.57 | 4.79 | 43 (≈ 113 µM) | O=C(NO)c1ccc(NC2CCN(c3ccc(C(F)(F)F)cc3)C2=O)cc1 (stereo unspecified) | 
23 | 7.68 | 6.39 | 4.95 |  | 6 (≈ 16.7 µM) | CC1(Nc2ccc(C(=O)NO)cc2)CCN(c2ccc(Cl)cc2)C1=O (stereo unspecified) | inhibition [16]: Active
24 | 7.74 | 7.12 | 5.22 |  | 17 (≈ 45.2 µM) | CC1(Nc2ccc(C(=O)NO)cc2)CCN(c2ccc3ncccc3c2)C1=O (stereo unspecified) | inhibition [16]: Active
25 | 7.92 |  | 5.00 |  | 210 (≈ 579 µM) | O=C(NO)c1ccc2c(c1)CC(Nc1nccc(-c3cccnc3)n1)CN2 (stereo unspecified) | clearance [8]: 74 mL/min/kg; inhibition [2]: inactive
